Where “and” joins values, the source holds several entries; their conditions need not be identical. Equal entries are not always repeated. Inconclusive results and toxic doses are left out.
Tested on: B6C3F1 mice, B16 melanoma ip, median survival T/C
Assay: NCI In Vivo Anticancer Drug Screen. Data for tumor model B16 Melanoma (intraperitoneal) in B6C3F1 mice
Details: endpoint: median survival time, higher = longer survival
Summary of the method: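 Tumor-bearing mice received test compound; a separate group got vehicle only. Survival was then compared, with results reported as treated over control.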

[1] = dose: 12.5 mg/kg/injection, schedule: Q01DX009 (ip), vehicle: saline with Tween-80
[2] = dose: 3.12 mg/kg/injection, schedule: Q01DX009 (ip), vehicle: Klucel (hydroxypropylcellulose) (HPC)
[3] = dose: 6.25 mg/kg/injection, schedule: Q01DX009 (ip), vehicle: Klucel (hydroxypropylcellulose) (HPC)
[4] = dose: 50.0 mg/kg/injection, schedule: Q01DX009 (ip), vehicle: saline with Tween-80
[5] = dose: 100.0 mg/kg/injection, schedule: Q01DX009 (ip), vehicle: saline with Tween-80
[6] = dose: 12.5 mg/kg/injection, schedule: Q01DX009 (ip), vehicle: Klucel (hydroxypropylcellulose) (HPC)
[7] = dose: 25.0 mg/kg/injection, schedule: Q01DX009 (ip), vehicle: Klucel (hydroxypropylcellulose) (HPC)
[8] = dose: 25.0 mg/kg/injection, schedule: Q01DX009 (ip), vehicle: saline
[9] = dose: 50.0 mg/kg/injection, schedule: Q01DX009 (ip), vehicle: saline
[10] = dose: 100.0 mg/kg/injection, schedule: Q01DX009 (ip), vehicle: saline
[11] = dose: 200.0 mg/kg/injection, schedule: Q01DX009 (ip), vehicle: saline
[12] = dose: 400.0 mg/kg/injection, schedule: Q01DX009 (ip), vehicle: saline
[13] = dose: 3.12 mg/kg/injection, schedule: Q01DX009 (ip), vehicle: saline with Tween-80
[14] = dose: 6.25 mg/kg/injection, schedule: Q01DX009 (ip), vehicle: saline with Tween-80
[15] = dose: 25.0 mg/kg/injection, schedule: Q01DX009 (ip), vehicle: saline with Tween-80
[16] = dose: 16.0 mg/kg/injection, schedule: Q01DX009 (ip), vehicle: saline with Tween-80

In the case of `CC(C)c1cc(C(=O)O)c(O)c(C(C)C)c1.CC(C)c1cc(C(=O)O)c(O)c(C(C)C)c1.[Cu]`, the T/C (dose: 1.5 mg/kg/injection, schedule: Q01DX009 (ip), vehicle: saline with Tween-80) is reported as 92 % of control, the T/C (dose: 3.0 mg/kg/injection, schedule: Q01DX009 (ip), vehicle: saline with Tween-80) is reported as 96 % of control and the T/C (dose: 6.0 mg/kg/injection, schedule: Q01DX009 (ip), vehicle: saline with Tween-80) is reported as 97 % of control. For the same compound, the T/C (dose: 12.0 mg/kg/injection, schedule: Q01DX009 (ip), vehicle: saline with Tween-80) was 106 % of control, the T/C [1] was 102 % of control and the T/C (dose: 24.0 mg/kg/injection, schedule: Q01DX009 (ip), vehicle: saline with Tween-80) was 89 % of control.
For `CNC(=S)C#N`, the T/C (dose: 12.5 mg/kg/injection, schedule: Q01DX009 (ip), vehicle: saline + Tween-80 + alcohol) was 119 % of control and the T/C (dose: 25.0 mg/kg/injection, schedule: Q01DX009 (ip), vehicle: saline + Tween-80 + alcohol) was 86 % of control.
With `C=C1C(=O)OC2/C=C(\C)CC/C=C(/C)CC(OC(=O)/C(=C/CO)CO)C12` (centres undefined) the T/C (dose: 10.0 mg/kg/injection, schedule: Q01DX009 (ip), vehicle: Klucel (hydroxypropylcellulose) (HPC)) was 106 % of control, the T/C (dose: 20.0 mg/kg/injection, schedule: Q01DX009 (ip), vehicle: Klucel (hydroxypropylcellulose) (HPC)) was 98 % of control and the T/C (dose: 40.0 mg/kg/injection, schedule: Q01DX009 (ip), vehicle: Klucel (hydroxypropylcellulose) (HPC)) was 96 % of control.
With `CN=C(NC)c1ccc(NC(=O)/C=C\c2ccc(/C=C/C(=O)Nc3ccc(C(=NC)NC)cc3)cc2)cc1` the T/C (dose: 1.56 mg/kg/injection, schedule: Q01DX009 (ip), vehicle: Klucel (hydroxypropylcellulose) (HPC)) was 110 % of control, the T/C [2] was 107 % of control and the T/C [3] was 90 % of control.
With `COC(=O)[C@@]12OC[C@]34[C@H]([C@@H](O)[C@@H]1O)[C@@]1(C)CC(=O)C(O)=C(C)[C@@H]1C[C@H]3OC(=O)[C@H](OC(=O)CC(C)C)[C@@H]24` the T/C (dose: 1.0 mg/kg/injection, schedule: Q01DX009 (ip), vehicle: saline + alcohol) was 156 % of control and 157 % of control and the T/C (dose: 2.0 mg/kg/injection, schedule: Q01DX009 (ip), vehicle: saline + alcohol) was 180 % of control.
In the case of `Nc1ncnc2c1cnn2Cc1ccc(Cl)cc1`, the T/C [4] is reported as 107 % of control and the T/C [5] is reported as 100 % of control.
`COc1c(CNC(=O)CCl)cc2[nH]c(C)cc2c1CNC(=O)CCl` was tested, and the T/C [6] was 104 % of control, the T/C [7] was 105 % of control and the T/C (dose: 100.0 mg/kg/injection, schedule: Q01DX009 (ip), vehicle: Klucel (hydroxypropylcellulose) (HPC)) was 116 % of control.
In the case of `CSc1nc(N)nc2c1ncn2C1OC(CO)C(O)C1O` (centres undefined), the T/C [8] is reported as 103 % of control, the T/C [9] is reported as 123 % of control and the T/C [10] is reported as 112 % of control. The T/C [11] was 97 % of control and the T/C [12] was 101 % of control.
For `Nc1ccc(OC(=O)Oc2ccc(N)cc2)cc1`, the T/C [10] was 113 % of control, the T/C [11] was 104 % of control and the T/C [12] was 98 % of control.
`CS(=O)(=O)c1ncc(Br)cn1` was tested, and the T/C [13] was 100 % of control, the T/C (dose: 3.13 mg/kg/injection, schedule: Q01DX009 (ip), vehicle: saline with Tween-80) was 101 % of control and the T/C [14] was 99 % of control and 105 % of control. For the same compound, the T/C [1] was 98 % of control and 106 % of control, the T/C [15] was 96 % of control and 104 % of control and the T/C [4] was 109 % of control and 97 % of control. The T/C [5] was 100 % of control and 104 % of control.
In the case of `O=NN(CCCl)C(=O)Oc1cc(Cl)c(Cl)cc1Cl`, the T/C [2] is reported as 99 % of control, the T/C [3] is reported as 99 % of control and the T/C [6] is reported as 188 % of control. For the same compound, the T/C [7] was 169 % of control and 205 % of control.
`C/C=C/c1cc2n(c1)C(=O)c1cc(OC3OC(C)C(NC)C(C)(O)C3O)c(C)c(O)c1NC2O` (centres undefined) was tested, and the T/C (dose: 0.25 micrograms/kg/injection, schedule: Q01DX009 (ip), vehicle: saline) was 106 % of control and the T/C (dose: 2.0 micrograms/kg/injection, schedule: Q04DX003 (ip), vehicle: DMSO) was 114 % of control.
For `CCN(CC)Cc1cc2[nH]c3c4ccc(Cl)cc4ncc3c2cc1OC`, the T/C [1] was 91 % of control and 102 % of control, the T/C [15] was 112 % of control and 102 % of control and the T/C [4] was 98 % of control and 107 % of control.
For `NS(=O)(=O)c1cc2c(cc1Cl)NC=NS2(=O)=O`, the T/C (dose: 37.5 mg/kg/injection, schedule: Q01DX009 (ip), vehicle: Klucel (hydroxypropylcellulose) (HPC)) was 94 % of control, the T/C (dose: 75.0 mg/kg/injection, schedule: Q01DX009 (ip), vehicle: Klucel (hydroxypropylcellulose) (HPC)) was 90 % of control and the T/C (dose: 150.0 mg/kg/injection, schedule: Q01DX009 (ip), vehicle: Klucel (hydroxypropylcellulose) (HPC)) was 95 % of control. The T/C (dose: 300.0 mg/kg/injection, schedule: Q01DX009 (ip), vehicle: Klucel (hydroxypropylcellulose) (HPC)) was 88 % of control.
`O=C(Nc1ccc(N=C=S)cc1Cl)c1cc(Cl)cc(Cl)c1O` was tested, and the T/C [3] was 107 % of control, the T/C [6] was 98 % of control and the T/C [7] was 116 % of control.
`ClC(Cl)(Cl)Sn1cccn1` was tested, and the T/C [13] was 103 % of control, the T/C [14] was 87 % of control and the T/C [9] was 87 % of control.
For `Cn1cc(NC(=O)c2cc(NC(=O)c3cc(NC=O)cn3C)cn2C)cc1C(=O)NCCC(=N)N`, the T/C (dose: 6.25 mg/kg/injection, schedule: Q01DX009 (ip), vehicle: water) was 99 % of control and 101 % of control and 105 % of control.
In the case of `CCOC(=O)C(CC(C)C)NC(=O)C(Cc1ccc(N(CCCl)CCCl)cc1)NC(C)=O` (centres undefined), the T/C (dose: 8.0 mg/kg/injection, schedule: Q01DX009 (ip), vehicle: saline with Tween-80) is reported as 105 % of control, the T/C [16] is reported as 102 % of control and the T/C (dose: 64.0 mg/kg/injection, schedule: Q01DX009 (ip), vehicle: saline with Tween-80) is reported as 160 % of control.
For `C[C@]12CC[C@H](O)CC1=CC[C@@H]1[C@@H]2CC[C@]2(C)C(=O)CC[C@@H]12`, the T/C [15] was 100 % of control, the T/C [4] was 97 % of control and the T/C [5] was 101 % of control. The T/C (dose: 200.0 mg/kg/injection, schedule: Q01DX009 (ip), vehicle: saline with Tween-80) was 92 % of control.
With `CC(=O)OCC1OC(n2cc(CBr)nn2)C(OC(C)=O)C(OC(C)=O)C1OC(C)=O` (centres undefined) the T/C (dose: 3.12 mg/kg/injection, schedule: Q01DX009 (ip), vehicle: saline) was 100 % of control, the T/C (dose: 6.25 mg/kg/injection, schedule: Q01DX009 (ip), vehicle: saline) was 103 % of control and the T/C (dose: 12.5 mg/kg/injection, schedule: Q01DX009 (ip), vehicle: saline) was 102 % of control. For the same compound, the T/C [8] was 113 % of control and 114 % of control, the T/C [9] was 117 % of control and 119 % of control and the T/C [10] was 105 % of control.
`C=C1C(=O)C23[C@H](O)C1CC[C@H]2[C@]12COC3(O)[C@@H](O)[C@@H]1C(C)(C)CC[C@@H]2O` was tested, and the T/C (dose: 1.56 mg/kg/injection, schedule: Q01DX009 (ip), vehicle: saline with Tween-80) was 98 % of control, the T/C [13] was 106 % of control and the T/C (dose: 4.5 mg/kg/injection, schedule: Q01DX009 (ip), vehicle: Klucel (hydroxypropylcellulose) (HPC)) was 97 % of control. The T/C [14] was 115 % of control, the T/C (dose: 9.0 mg/kg/injection, schedule: Q01DX009 (ip), vehicle: Klucel (hydroxypropylcellulose) (HPC)) was 93 % of control and the T/C [1] was 108 % of control. The T/C (dose: 18.0 mg/kg/injection, schedule: Q01DX009 (ip), vehicle: Klucel (hydroxypropylcellulose) (HPC)) was 99 % of control and the T/C [15] was 98 % of control.
For `CC(C)(C)OC(=O)NC(CCCCNC(=O)OCc1ccccc1)C(=O)O` (centres undefined), the T/C (dose: 25.0 mg/kg/injection, schedule: Q01DX009 (ip), vehicle: distilled water + Tween-80 + alcohol) was 111 % of control and the T/C (dose: 50.0 mg/kg/injection, schedule: Q01DX009 (ip), vehicle: distilled water + Tween-80 + alcohol) was 96 % of control.
`[Cl][Pt+2][Cl].[NH-]C1CCC1.[NH2-]` was tested, and the T/C (dose: 0.75 mg/kg/injection, schedule: Q01DX009 (ip), vehicle: saline) was 151 % of control and the T/C (dose: 3.0 mg/kg/injection, schedule: Q01DX009 (ip), vehicle: saline) was 205 % of control.
In the case of `C=C1C(O)C2(O)OCC34C(CC5C(C)=CC(=O)C(O)C5(C)C23)OC(=O)C(OC(=O)C/C=C/CCCCCCCC)C14` (centres undefined), the T/C (dose: 4.0 mg/kg/injection, schedule: Q01DX009 (ip), vehicle: saline + alcohol) is reported as 182 % of control, the T/C (dose: 5.76 mg/kg/injection, schedule: Q01DX009 (ip), vehicle: saline + Tween-80 + alcohol) is reported as 160 % of control and the T/C (dose: 8.0 mg/kg/injection, schedule: Q01DX009 (ip), vehicle: saline + alcohol) is reported as 182 % of control. The T/C (dose: 9.6 mg/kg/injection, schedule: Q01DX009 (ip), vehicle: saline + Tween-80 + alcohol) was 197 % of control, the T/C (dose: 16.0 mg/kg/injection, schedule: Q01DX009 (ip), vehicle: saline + Tween-80 + alcohol) was 176 % of control and the T/C (dose: 16.0 mg/kg/injection, schedule: Q01DX009 (ip), vehicle: saline + alcohol) was 192 % of control.
For `C1OC1CN1CCN(CC2CO2)CC1` (centres undefined), the T/C (dose: 4.0 mg/kg/injection, schedule: Q01DX009 (ip), vehicle: saline with Tween-80) was 103 % of control and the T/C [16] was 110 % of control.

Reference: PubChem BioAssay AID200 (DTP/NCI, 2004)
